Data from PubChem BioAssay AID248 (DTP/NCI, 2004).
Inconclusive results and toxic doses are left out. No stated cut-off is given here; in the data, active means T/C of 150% or more; inactive means T/C below 125%.

System: L1210 leukemia ip in BDF1 mice, survival T/C
Assay: NCI In Vivo Anticancer Drug Screen. Data for tumor model L1210 Leukemia (intraperitoneal) in B6D2F1 (BDF1) mice
Conditions: endpoint: mean survival time, higher = longer survival
How it was run: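 Each compound was tested against a transplantable tumor grown in mice. The endpoint was survival, with treated animals benchmarked against vehicle controls as a simple ratio.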

[1] = dose: 100.0 mg/kg/injection, schedule: Q01DX001 (ip), vehicle: carboxymethylcellulose (CMC)
[2] = dose: 200.0 mg/kg/injection, schedule: Q01DX001 (ip), vehicle: carboxymethylcellulose (CMC)
[3] = dose: 400.0 mg/kg/injection, schedule: Q01DX001 (ip), vehicle: carboxymethylcellulose (CMC)
[4] = dose: 100.0 mg/kg/injection, schedule: Q01DX009 (ip), vehicle: saline
[5] = dose: 200.0 mg/kg/injection, schedule: Q01DX009 (ip), vehicle: saline
[6] = dose: 400.0 mg/kg/injection, schedule: Q01DX009 (ip), vehicle: saline
[7] = dose: 100.0 mg/kg/injection, schedule: Q01DX009 (ip), vehicle: Klucel (hydroxypropylcellulose) (HPC)
[8] = dose: 100.0 mg/kg/injection, schedule: Q04DX003 (ip), vehicle: Klucel (hydroxypropylcellulose) (HPC)
[9] = dose: 200.0 mg/kg/injection, schedule: Q01DX009 (ip), vehicle: Klucel (hydroxypropylcellulose) (HPC)
[10] = dose: 200.0 mg/kg/injection, schedule: Q04DX003 (ip), vehicle: Klucel (hydroxypropylcellulose) (HPC)
[11] = dose: 400.0 mg/kg/injection, schedule: Q01DX009 (ip), vehicle: Klucel (hydroxypropylcellulose) (HPC)
[12] = dose: 400.0 mg/kg/injection, schedule: Q04DX003 (ip), vehicle: Klucel (hydroxypropylcellulose) (HPC)
[13] = dose: 100.0 mg/kg/injection, schedule: Q04DX003 (ip), vehicle: saline
[14] = dose: 200.0 mg/kg/injection, schedule: Q04DX003 (ip), vehicle: saline
[15] = dose: 400.0 mg/kg/injection, schedule: Q04DX003 (ip), vehicle: saline
[16] = dose: 100.0 mg/kg/injection, schedule: Q04DX002 (ip), vehicle: saline with Tween-80
[17] = dose: 200.0 mg/kg/injection, schedule: Q04DX002 (ip), vehicle: saline with Tween-80
[18] = dose: 100.0 mg/kg/injection, schedule: Q01DX001 (ip), vehicle: saline
[19] = dose: 100.0 mg/kg/injection, schedule: Q04DX003 (ip), vehicle: saline with Tween-80
[20] = dose: 75.0 mg/kg/injection, schedule: Q01DX009 (ip), vehicle: Klucel (hydroxypropylcellulose) (HPC)

Measured: T/C

CC(S)c1ccc2c(c1)Cc1ccccc1-2 (centres undefined)
inactive: [1] 101 % of control | [2] 101 % of control | [3] 104 % of control

COc1ccc(NC(=O)Oc2ccc(Cl)c(C)c2)c(OC)c1
inactive: [4] 118 % of control | [5] 114 % of control | [6] 108 % of control

CS(=O)(=O)Nc1ccc(C(=O)O)cc1
inactive: [7] 97 % of control | [8] 100 % of control | [9] 98 % of control | [10] 107 % of control | [11] 98 % of control | [12] 105 % of control

CCSC(C)C
inactive: [13] 106 % of control | [14] 107 % of control | [15] 102 % of control

Oc1cc2c(cc1O)C1c3ccc(O)c(O)c3OCC1(O)C2 (centres undefined)
inactive: [4] 102 % of control | [13] 110 % of control | [5] 104 % of control | [14] 104 % of control | [6] 101 % of control | [15] 102 % of control

CCN(CC)C(=O)Oc1ccc(C(C)=O)cc1
inactive: [16] 103 % of control | [17] 100 % of control | dose: 400.0 mg/kg/injection, schedule: Q04DX002 (ip), vehicle: saline with Tween-80 114 % of control

O=C1c2ccccc2-c2cccc(Cl)c21
inactive: [1] 101 % of control | [2] 93 % of control | [3] 104 % of control

Cc1[nH]c(=O)[nH]c(=O)c1N=Nc1ccccc1
inactive: dose: 25.0 mg/kg/injection, schedule: Q01DX001 (ip), vehicle: saline with Tween-80 95 % of control | dose: 50.0 mg/kg/injection, schedule: Q01DX001 (ip), vehicle: saline with Tween-80 98 % of control | dose: 100.0 mg/kg/injection, schedule: Q01DX001 (ip), vehicle: saline with Tween-80 95 % of control

Nc1ccc(N)nc1
inactive: [7] 98 % of control | [8] 95 % of control | [9] 98 % of control | [10] 93 % of control | [11] 94 % of control | [12] 98 % of control

C[P+]1(C)CC=C2CCCCC21 (centres undefined)
inactive: dose: 12.5 mg/kg/injection, schedule: Q04DX002 (ip), vehicle: saline with Tween-80 100 % of control | dose: 25.0 mg/kg/injection, schedule: Q04DX002 (ip), vehicle: saline with Tween-80 98 % of control | dose: 50.0 mg/kg/injection, schedule: Q04DX002 (ip), vehicle: saline with Tween-80 98 % of control

CCOC(=O)C(Cl)C(C)(O)c1ccccc1 (centres undefined)
inactive: [16] 95 % of control | [17] 95 % of control

CCN(CC)CCOC(=O)c1[nH]cnc1/N=N/N(C)C1CCCCC1
inactive: dose: 100.0 mg/kg/injection, schedule: Q01DX001 (ip), vehicle: other 104 % of control | dose: 200.0 mg/kg/injection, schedule: Q01DX001 (ip), vehicle: other 93 % of control

O=C(Nc1ccc(NC2=NCCN2)cc1)c1cc(Cl)cc(C(=O)Nc2ccc(NC3=NCCN3)cc2)c1
inactive: dose: 7.5 mg/kg/injection, schedule: Q01DX010 (ip), vehicle: saline 100 % of control | dose: 15.0 mg/kg/injection, schedule: Q01DX010 (ip), vehicle: saline 95 % of control | dose: 15.0 mg/kg/injection, schedule: Q01DX Z (ip), vehicle: saline 105 % of control | dose: 30.0 mg/kg/injection, schedule: Q01DX Z (ip), vehicle: saline 105 % of control

CC(C)(O)C(O)c1ccccc1 (centres undefined)
inactive: [18] 103 % of control | [4] 98 % of control | [13] 97 % of control | dose: 200.0 mg/kg/injection, schedule: Q01DX001 (ip), vehicle: saline 101 % of control | [5] 93 % of control | [14] 97 % of control | dose: 400.0 mg/kg/injection, schedule: Q01DX001 (ip), vehicle: saline 95 % of control | [15] 100 % of control

O=C(OC(CCN1CCCCC1)c1ccccc1)c1ccccc1 (centres undefined)
inactive: [19] 100 % of control

CCN(CC)CCC(CNc1c(C)cnc2cc(Cl)ccc12)c1ccc(Cl)cc1 (centres undefined)
inactive: [19] 100 % of control | dose: 200.0 mg/kg/injection, schedule: Q04DX003 (ip), vehicle: saline with Tween-80 100 % of control | dose: 400.0 mg/kg/injection, schedule: Q04DX003 (ip), vehicle: saline with Tween-80 94 % of control

CCCCCCCCSSCCCCCCCC
inactive: dose: 100.0 mg/kg/injection, schedule: Q01DX009 (ip), vehicle: saline with Tween-80 97 % of control | [13] 95 % of control | dose: 200.0 mg/kg/injection, schedule: Q01DX009 (ip), vehicle: saline with Tween-80 95 % of control | [14] 98 % of control | dose: 400.0 mg/kg/injection, schedule: Q01DX009 (ip), vehicle: saline with Tween-80 91 % of control | [15] 95 % of control

O=C(NO)c1cccc(C(=O)NO)n1
inactive: dose: 237.0 mg/kg/injection, schedule: Q01DX015 (ip), vehicle: water 113 % of control | dose: 356.0 mg/kg/injection, schedule: Q01DX015 (ip), vehicle: water 114 % of control | dose: 533.0 mg/kg/injection, schedule: Q01DX015 (ip), vehicle: water 104 % of control

Clc1cc[c]([Sn]([Cl])([c]2ccc(Cl)cc2)[c]2ccc(Cl)cc2)cc1
inactive: dose: 1.56 mg/kg/injection, schedule: Q01DX009 (ip), vehicle: saline 98 % of control | dose: 3.12 mg/kg/injection, schedule: Q01DX009 (ip), vehicle: saline 106 % of control

COC(=O)CC(C(=O)OC)C(=O)OC
inactive: dose: 75.0 mg/kg/injection, schedule: Q01DX001 (ip), vehicle: Klucel (hydroxypropylcellulose) (HPC) 105 % of control | [20] 97 % of control | dose: 150.0 mg/kg/injection, schedule: Q01DX001 (ip), vehicle: Klucel (hydroxypropylcellulose) (HPC) 103 % of control | dose: 150.0 mg/kg/injection, schedule: Q01DX009 (ip), vehicle: Klucel (hydroxypropylcellulose) (HPC) 105 % of control | dose: 300.0 mg/kg/injection, schedule: Q01DX001 (ip), vehicle: Klucel (hydroxypropylcellulose) (HPC) 90 % of control | dose: 300.0 mg/kg/injection, schedule: Q01DX009 (ip), vehicle: Klucel (hydroxypropylcellulose) (HPC) 105 % of control

CCCOc1ccc(-c2nc(-c3ccc(N=Cc4ccc(N(CCOS(C)(=O)=O)CCOS(C)(=O)=O)cc4C)cc3)cs2)cc1
inactive: dose: 25.0 mg/kg/injection, schedule: Q01DX009 (ip), vehicle: Klucel (hydroxypropylcellulose) (HPC) 114 % of control | dose: 50.0 mg/kg/injection, schedule: Q01DX009 (ip), vehicle: Klucel (hydroxypropylcellulose) (HPC) 109 % of control | [20] 106 % of control | [7] 94 % of control

CCCCCCCCC(=O)NCCCNC(=O)CCCCCCCC
inactive: dose: 30.0 mg/kg/injection, schedule: Q01DX001 (ip), vehicle: saline 96 % of control | [18] 91 % of control | dose: 300.0 mg/kg/injection, schedule: Q01DX001 (ip), vehicle: saline 93 % of control

COc1nc(Cl)nc2c1c(C#N)cn2C1OC(CO)C(O)C1O (centres undefined)
inactive: dose: 100.0 mg/kg/injection, schedule: Q01DX005 (ip), vehicle: saline 113 % of control
